Drawing on paper PMC9231362 (Viruses, 2022), this text covers IC50 for two compounds.

The assay concerns the target T1, catL (cathepsin L; rh catL) (Homo sapiens, UniProt P07711).
T1 construct: gene CTSL; incubated on ice 15 min in assay buffer pH 6.0 before use
The assay can be described thus: fluorogenic protease activity assay. It is filed as biochemical.

T1 sequence (P07711 114-288): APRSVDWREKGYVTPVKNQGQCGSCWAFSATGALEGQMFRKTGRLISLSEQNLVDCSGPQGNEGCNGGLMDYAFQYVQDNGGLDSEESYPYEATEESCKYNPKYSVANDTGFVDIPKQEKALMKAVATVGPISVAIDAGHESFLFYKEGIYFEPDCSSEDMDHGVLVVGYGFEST
T1 sequence (P07711 292-333): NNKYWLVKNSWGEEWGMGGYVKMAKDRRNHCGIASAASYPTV

Consider `CO[C@H]1/C=C/O[C@@]2(C)Oc3c(C)c(O)c4c(O)c(c(/C=N/N5CCN(C6CCCC6)CC5)c(O)c4c3C2=O)NC(=O)/C(C)=C\C=C\[C@H](C)[C@H](O)[C@@H](C)[C@@H](O)[C@@H](C)[C@H](OC(C)=O)[C@@H]1C` [Rifapentine], for which the IC50 is about 30 µM. `C[C@@H]1[C@H](O)[C@@H](C)/C=C/C=C/CC/C=C/C=C/C=C/C=C/[C@H](O[C@@H]2O[C@H](C)[C@@H](O)[C@H](N)[C@@H]2O)C[C@@H]2O[C@](O)(C[C@@H](O)[C@H](O)CC[C@@H](O)C[C@@H](O)C[C@@H](O)CC(=O)O[C@H]1C)C[C@H](O)[C@H]2C(=O)O` [Nystatin] yielded an IC50 of about 2 µM.

The IC50 is the concentration at which inhibition is half-maximal. A high value points to a need for much substance.
